Converted amounts (≈) assume the structure as drawn.

This series is described as follows: Solubility of Compound A in several test solutions. Type of series: physicochemical. From the text: Compound A was used as an insoluble active ingredient in the following references and examples.

On to `CC1(C)[C@H]2C[C@H](C/C=C\CCCC(=O)O)[C@@H](NC(=O)c3csc4ccc(O)cc34)[C@@H]1C2` [Compound A, (Z)-7-[(1R,2R,3S,5S)-2-(5-hydroxybenzo[b]thiophen-3-ylcarbonylamino)-10-norpinan-3-yl]-5-heptenoic acid], for which the solubility at 3 h runs as follows: (Water, 3 hours, final pH 5.81) 5.56 µg/mL (≈ 12.6 µM); (jp-2 solution, JP-2 Sol., 3 hours, final pH 6.84) 81.1 µg/mL (≈ 184 µM); (ph 6.0 test solution, pH6.0, 3 hours, final pH 6.08) 15.2 µg/mL (≈ 34.4 µM); (ph 7.8 test solution, pH7.8, 3 hours, final pH 7.6) 488 µg/mL (≈ 1100 µM); (ph 8.0 test solution, pH8.0, 3 hours, final pH 7.76) 653 µg/mL (≈ 1480 µM); (ph 8.5 test solution, pH8.5, 3 hours, final pH 8.29) 6200 µg/mL (≈ 14000 µM). For the same compound, the solubility at 6 h reads like this: (Water, 6 hours, final pH 5.81) 5.93 µg/mL (≈ 13.4 µM); (jp-2 solution, JP-2 Sol., 6 hours, final pH 6.84) 81.7 µg/mL (≈ 185 µM); (ph 6.0 test solution, pH6.0, 6 hours, final pH 6.08) 15.6 µg/mL (≈ 35.3 µM); (ph 7.8 test solution, pH7.8, 6 hours, final pH 7.6) 489 µg/mL (≈ 1110 µM); (ph 8.0 test solution, pH8.0, 6 hours, final pH 7.76) 676 µg/mL (≈ 1530 µM); (ph 8.5 test solution, pH8.5, 6 hours, final pH 8.29) 6220 µg/mL (≈ 14100 µM).
